Values of other authors as cited in patent US20150073057A1, “COMPOSITION AND METHOD FOR TREATMENT OF DIABETES” (BioKier, Inc., priority 2013, published 2015).

Tested on: overweight and obese human subjects

Oxyntomodulin: a gut hormone, 37 amino acid peptide co-secreted along with GLP-1 from L-cells
reduction of energy intake: ~17%
